Data as given in patent US12351877B2, “Systems and methods for determining a treatment course of action” (Arizona Board of Regents on Behalf of the University of …, priority 2018, dated 2025).

Legend:
MCF7 cells = test: Live-cell TIRFM of SCABs before and after inhibiting contractility; format: cell-based, human; conditions: 25 uM ROCK inhibitor
Text: (§1) The relationship between cortical contractility and membrane motility dynamics was further examined. Using live-cell Total Internal Reflection Fluorescence Microscopy (TIRFM), SCABs at the leading edge of MCF7 and T47D cells were imaged before and after inhibiting contractility using the ROCK inhibitor, Y-27632; the actin cytoskeleton was labeled with iRFP-Lifeact, and SCABs with MLC-mRuby2. […] In addition, the existence of SCABs, their contractile nature, and their suppressive effects were validated in two types of epithelial cells: MDCK canine kidney epithelial cells, and Caco-2 human intestinal epithelial cells (FIGS. 3c and 3d). […] ER is potentially enriching for SCABs by inducing the expression of actin regulators that promote SCAB formation.

T47D cells = test: as above; format: cell-based, human; conditions: 25 uM ROCK inhibitor
Text: as §1

[1] = system: Caco-2 human intestinal epithelial cells; test: Leading edge kymography before and after dissolving SCABs; format: cell-based; conditions: 25 μM ROCK inhibitor, dissolution of SCABs
Text: as §1

[2] = system: MDCK canine kidney epithelial cells; test: as above; format: cell-based; conditions: 25 μM ROCK inhibitor, dissolution of SCABs
Text: as §1

In the case of `C[C@@H](N)[C@H]1CC[C@H](C(=O)Nc2ccncc2)CC1` [Y-27632], the SCABs (MCF7 cells) is reported as “dissolution of SCABs”, the “MLC at the leading edge” value (MCF7 cells; MLC-mRuby2) is reported as “loss of MLC” and the protrusive activity (MCF7 cells; iRFP-Lifeact) is reported as “rapid increase”. The SCABs (T47D cells) was “dissolution of SCABs”, the “MLC at the leading edge” value (T47D cells; MLC-mRuby2) was “loss of MLC” and the protrusive activity (T47D cells; iRFP-Lifeact) was “rapid increase”. For the same molecule, the “motility dynamics of the leading edge” value [1] was “dramatically increased”, the “motility dynamics of the leading edge” value ([1]; listed as ROCK inhibitor) was “increased” and the “motility dynamics of the leading edge” value [2] was “dramatically increased”. The “motility dynamics of the leading edge” value ([2]; listed as ROCK inhibitor) was “increased”.
